Measured values as given in patent EP0093484A2, “Antibacterial monic acid derivatives” (BEECHAM GROUP PLC, priority 1982, dated 1983).
In brackets after ≈: the same amount, converted by molar mass. Like-named read-outs stand apart in the source and are kept apart here.

Key:
[1] = test system: Neisseria catarrhalis 1502; test: Human bacteria, MIC by serial dilution in nutrient agar; type: cell-based; conditions: nutrient agar with 5% chocolated horse blood, 18 hours at 37°C
Staph. aureus Oxford [2] = test: Veterinary bacteria, MIC by two fold serial dilution in agar
Method: (§1) The activity of the compounds of the Examples against various organisms important in veterinary infections was determined using two fold serial dilutions in Diagnostic Sensitivity Test Agar inoculated with 10^4 organisms.

Strep. agalactiae SPA1 = test: as above
Method: as §1

Staph. aureus Oxford [3] = test: Human bacteria, MIC by serial dilution in nutrient agar; type: cell-based; conditions: Staph. aureus Oxford (human panel), nutrient agar with 5% chocolated horse blood, 18 hours at 37°C
M. suipneumoniae MS16 = test: Anti-mycoplasmal activity, MIC in Friis broth agarose; type: cell-based; conditions: Friis broth solidified with 0.9% agarose, 6 days incubation at 37°C
M. dispar NCTC 10125 = test: as above; type: cell-based; conditions: Friis broth solidified with 0.9% agarose, 6 days incubation at 37°C
[4] = test system: Staph. aureus 152 (pen. sens.); test: Veterinary bacteria, MIC by two fold serial dilution in agar
Method: as §1

Strep. uberis SPU1 = test: as above
Method: as §1

S. dublin S7 = test: as above
Method: as §1

[5] = test system: Pasteurella multocida 1633; test: Human bacteria, MIC by serial dilution in nutrient agar; type: cell-based; conditions: nutrient agar with 5% chocolated horse blood, 18 hours at 37°C
E. coli NCTC 10418 [6] = test: as above; type: cell-based; conditions: E. coli NCTC 10418 (human panel), nutrient agar with 5% chocolated horse blood, 18 hours at 37°C
M. gallisepticum S6 = test: Anti-mycoplasmal activity, MIC in Friis broth agarose; type: cell-based; conditions: Friis broth solidified with 0.9% agarose, 6 days incubation at 37°C
M. suipneumoniae JF 435 = test: as above; type: cell-based; conditions: Friis broth solidified with 0.9% agarose, 6 days incubation at 37°C
K. aerogenes A = test: Human bacteria, MIC by serial dilution in nutrient agar; type: cell-based; conditions: nutrient agar with 5% chocolated horse blood, 18 hours at 37°C
Strep. pneumoniae CN33 = test: as above; type: cell-based; conditions: nutrient agar with 5% chocolated horse blood, 18 hours at 37°C
[7] = test system: M. suipneumoniae ATCC 25095; test: Anti-mycoplasmal activity, MIC in Friis broth agarose; type: cell-based; conditions: Friis broth solidified with 0.9% agarose, 6 days incubation at 37°C
E. coli NCTC 10418 [8] = test: Veterinary bacteria, MIC by two fold serial dilution in agar
Method: as §1

M. bovis NCTC 10131 = test: microbe, parasite or virus in culture; type: cell-based
S. typhimurium S18 = test: Veterinary bacteria, MIC by two fold serial dilution in agar
Method: as §1

[9] = test system: Strep. pyogenes R80/421-A; test: Human bacteria, MIC by serial dilution in nutrient agar; type: cell-based; conditions: nutrient agar with 5% chocolated horse blood, 18 hours at 37°C
M. hyorhinis ATCC 25021 = test: Anti-mycoplasmal activity, MIC in Friis broth agarose; type: cell-based; conditions: Friis broth solidified with 0.9% agarose, 6 days incubation at 37°C
Strep. agalactiae 2788-B = test: Human bacteria, MIC by serial dilution in nutrient agar; type: cell-based; conditions: nutrient agar with 5% chocolated horse blood, 18 hours at 37°C
[10] = test system: Strep. suis (group D) SPS11; test: Veterinary bacteria, MIC by two fold serial dilution in agar
Method: as §1

Strep. spp. 64/848-C = test: Human bacteria, MIC by serial dilution in nutrient agar; type: cell-based; conditions: nutrient agar with 5% chocolated horse blood, 18 hours at 37°C
Past. multocida PA1 = test: Veterinary bacteria, MIC by two fold serial dilution in agar
Method: as §1

M. suipneumoniae LABER = test: Anti-mycoplasmal activity, MIC in Friis broth agarose; type: cell-based; conditions: Friis broth solidified with 0.9% agarose, 6 days incubation at 37°C
[11] = test system: M. bovigenitalium ATCC 14173; test: as above; type: cell-based; conditions: Friis broth solidified with 0.9% agarose, 6 days incubation at 37°C
[12] = test system: M. suipneumoniae J2206/183b; test: as above; type: cell-based; conditions: Friis broth solidified with 0.9% agarose, 6 days incubation at 37°C
E. coli ESS = test: Human bacteria, MIC by serial dilution in nutrient agar; type: cell-based; conditions: nutrient agar with 5% chocolated horse blood, 18 hours at 37°C
Staph. aureus Russell = test: as above; type: cell-based; conditions: nutrient agar with 5% chocolated horse blood, 18 hours at 37°C
Ps. aeruginosa 10662 = test: as above; type: cell-based; conditions: nutrient agar with 5% chocolated horse blood, 18 hours at 37°C
Strep. faecalis I = test: as above; type: cell-based; conditions: nutrient agar with 5% chocolated horse blood, 18 hours at 37°C
[13] = test system: Staph. aureus B4 (pen. resistant); test: Veterinary bacteria, MIC by two fold serial dilution in agar
Method: as §1

Bord. bronchiseptica BO9 = test: as above
Method: as §1

[14] = test system: Corynebacterium pyogenes CY1; test: as above
Method: as §1

[15] = test system: M. suipneumoniae NCTC 10110; test: Anti-mycoplasmal activity, MIC in Friis broth agarose; type: cell-based; conditions: Friis broth solidified with 0.9% agarose, 6 days incubation at 37°C
Past. multocida PA2 = test: Veterinary bacteria, MIC by two fold serial dilution in agar; conditions: Pasteurella multocida, PA2, 18 h
Method: as §1

[16] = Staphylococcus aureus, read-out: MIC
[17] = Mesomycoplasma hyopneumoniae, 144 h, read-out: MIC

1-(p-Methylsulfinylphenyl)ethyl monate A [Example 8]
MIC [1]: 4.0 µg/mL
MIC (Staph. aureus Oxford [2]; Staph. aureus Oxford (veterinary panel), Diagnostic Sensitivity Test Agar, 18 hours at 37°C): 20 µg/mL
MIC (Strep. agalactiae SPA1; Strep. agalactiae SPA1, Diagnostic Sensitivity Test Agar, 18 hours at 37°C): >80 µg/mL
MIC (Staph. aureus Oxford [3]): 16 µg/mL
MIC (M. suipneumoniae MS16): 1.0 µg/mL
MIC (M. dispar NCTC 10125): 0.5 µg/mL
MIC ([4]; Staph. aureus 152 (pen. sens.), Diagnostic Sensitivity Test Agar, 18 hours at 37°C): 5.0 µg/mL
MIC (Strep. uberis SPU1; Strep. uberis SPU1, Diagnostic Sensitivity Test Agar, 18 hours at 37°C): .625 µg/mL
MIC (S. dublin S7; S. dublin S7, Diagnostic Sensitivity Test Agar, 18 hours at 37°C): >80 µg/mL
MIC [5]: 8.0 µg/mL
MIC (E. coli NCTC 10418 [6]): >128 µg/mL
MIC (M. gallisepticum S6): 10 µg/mL
MIC (M. suipneumoniae JF 435): 2.5 µg/mL
MIC (K. aerogenes A): >128 µg/mL
MIC (Strep. pneumoniae CN33): 8.0 µg/mL
MIC [7]: 2.5 µg/mL
MIC (E. coli NCTC 10418 [8]; E. coli NCTC 10418 (veterinary panel), Diagnostic Sensitivity Test Agar, 18 hours at 37°C): >80 µg/mL
MIC (M. bovis NCTC 10131; M. bovis NCTC 10131, Friis broth solidified with 0.9% agarose, 6 days incubation at 37°C): .025 µg/mL
MIC (S. typhimurium S18; S. typhimurium S18, Diagnostic Sensitivity Test Agar, 18 hours at 37°C): >80 µg/mL
MIC [9]: 2.0 µg/mL
MIC (M. hyorhinis ATCC 25021): 1.0 µg/mL
MIC (Strep. agalactiae 2788-B): 8.0 µg/mL
MIC ([10]; Strep. suis (group D) SPS11, Diagnostic Sensitivity Test Agar, 18 hours at 37°C): 80 µg/mL
MIC (Strep. spp. 64/848-C): 4.0 µg/mL
MIC (Past. multocida PA1; Past. multocida PA1, Diagnostic Sensitivity Test Agar, 18 hours at 37°C): 10 µg/mL
MIC (M. suipneumoniae LABER): 2.5 µg/mL
MIC [11]: 0.1 µg/mL
MIC [12]: 2.5 µg/mL
MIC (E. coli ESS): 4.0 µg/mL
MIC (Staph. aureus Russell): 32 µg/mL
MIC (Ps. aeruginosa 10662): >128 µg/mL
MIC (Strep. faecalis I): >128 µg/mL
MIC ([13]; Staph. aureus B4 (pen. resistant), Diagnostic Sensitivity Test Agar, 18 hours at 37°C): 20 µg/mL
MIC (Bord. bronchiseptica BO9; Bord. bronchiseptica BO9, Diagnostic Sensitivity Test Agar, 18 hours at 37°C): >80 µg/mL
MIC ([14]; Corynebacterium pyogenes CY1, Diagnostic Sensitivity Test Agar, 18 hours at 37°C): >80 µg/mL
MIC [15]: 2.5 µg/mL

CC(=CC(=O)OC(C)c1ccc(S(C)(=O)=O)cc1)CC1OCC(CC2OC2C(C)C(C)O)C(O)C1O (stereo not shown) [Example 9, 1-(p-Methylsulfonylphenyl)ethyl monate A]
MIC ([1]; read-out: MIC): 2 µg/mL (≈ 3.8 µM)
MIC (Staph. aureus Oxford [2]; Staphylococcus aureus, 18 h): 10 µg/mL (≈ 19 µM)
MIC (Strep. agalactiae SPA1; Streptococcus agalactiae, SPA1, 18 h): 80 µg/mL (≈ 152 µM)
MIC (Staph. aureus Oxford [3]; [16]): 4 µg/mL (≈ 7.6 µM)
MIC (M. suipneumoniae MS16; [17]): 0.5 µg/mL (≈ 0.949 µM)
MIC (M. dispar NCTC 10125; 144 h, read-out: MIC): 0.05 µg/mL (≈ 0.0949 µM)
MIC ([4]; Staphylococcus aureus, 18 h): 5 µg/mL (≈ 9.49 µM)
MIC (Strep. uberis SPU1; Streptococcus uberis, SPU1, 18 h): 0.312 µg/mL (≈ 0.592 µM)
MIC (S. dublin S7; Salmonella enterica, S7, 18 h): > 80 µg/mL
MIC ([5]; read-out: MIC): 8 µg/mL (≈ 15.2 µM)
MIC (E. coli NCTC 10418 [6]; Escherichia coli, NCTC10418, read-out: MIC): > 128 µg/mL
MIC (M. gallisepticum S6; Mycoplasmoides gallisepticum, 144 h, read-out: MIC): 10 µg/mL (≈ 19 µM)
MIC (M. suipneumoniae JF 435; Mesomycoplasma hyopneumoniae, JF435, 144 h, read-out: MIC): 1 µg/mL (≈ 1.9 µM)
MIC (K. aerogenes A; Klebsiella aerogenes, read-out: MIC): > 128 µg/mL
MIC (Strep. pneumoniae CN33; Streptococcus pneumoniae, read-out: MIC): 4 µg/mL (≈ 7.6 µM)
MIC ([7]; Mesomycoplasma hyopneumoniae, ATCC25095, 144 h, read-out: MIC): 0.5 µg/mL (≈ 0.949 µM)
MIC (E. coli NCTC 10418 [8]; Escherichia coli, NCTC10418, 18 h): > 80 µg/mL
MIC (M. bovis NCTC 10131; NCTC10131, 144 h): < 0.01 µg/mL
MIC (S. typhimurium S18; Salmonella enterica, TYPHIMURIUM, 18 h): > 80 µg/mL
MIC ([9]; Streptococcus pyogenes, read-out: MIC): 1 µg/mL (≈ 1.9 µM)
MIC (M. hyorhinis ATCC 25021; Mesomycoplasma hyorhinis, ATCC25021, 144 h, read-out: MIC): 0.5 µg/mL (≈ 0.949 µM)
MIC (Past. multocida PA2): 2.5 µg/mL (≈ 4.75 µM)
MIC (Strep. agalactiae 2788-B; Streptococcus agalactiae, read-out: MIC): 8 µg/mL (≈ 15.2 µM)
MIC ([10]; Streptococcus suis, 18 h): 40 µg/mL (≈ 76 µM)
MIC (Strep. spp. 64/848-C; read-out: MIC): 4 µg/mL (≈ 7.6 µM)
MIC (Past. multocida PA1; Pasteurella multocida, PA1, 18 h): 5 µg/mL (≈ 9.49 µM)
MIC (M. suipneumoniae LABER; [17]): 0.5 µg/mL (≈ 0.949 µM)
MIC ([11]; 144 h, read-out: MIC): 0.05 µg/mL (≈ 0.0949 µM)
MIC [12, 17]: 1 µg/mL (≈ 1.9 µM)
MIC (E. coli ESS; Escherichia coli, read-out: MIC): 4 µg/mL (≈ 7.6 µM)
MIC (Staph. aureus Russell; [16]): 16 µg/mL (≈ 30.4 µM)
MIC (Ps. aeruginosa 10662; Pseudomonas aeruginosa, read-out: MIC): > 128 µg/mL
MIC (Strep. faecalis I; Enterococcus faecalis, read-out: MIC): > 128 µg/mL
MIC ([13]; Staphylococcus aureus, 18 h): 5 µg/mL (≈ 9.49 µM)
MIC (Bord. bronchiseptica BO9; Bordetella bronchiseptica, BO9, 18 h): 80 µg/mL (≈ 152 µM)
MIC ([14]; CY1, 18 h): > 80 µg/mL
MIC ([15]; Mesomycoplasma hyopneumoniae, NCTC10110, 144 h, read-out: MIC): 1 µg/mL (≈ 1.9 µM)
